Like-named read-outs stand apart in the source and are kept apart here. Values belong to the compound of their own block, whether it stands above or below them. Non-standard residues stand in square brackets, D forms with d. Residues, ends and D or L forms follow the SMILES beside them. *: point of attachment. NMeW = CN[C@@H](Cc1c[nH]c2ccccc12)C(=O)O; 2Nal = N[C@@H](Cc1ccc2ccccc2c1)C(=O)O; Bn = c1ccc(C*)cc1
Biological target: Sushi domains (SD1/2) protein
Test: Fluorescence polarization (FP) competition assay with AJAP-1probe, calculated Ki
Format: binding
How it was run: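 Competition against 25 nM TAMRA-labelled peptide probe binding SD1/2, in PBS pH 7.4 with 1% BSA at rt, read at 530/580 nm. IC50 from sigmoidal dose-response fits, at least triplicate; Ki calculated from IC50 using probe Kd from saturation binding.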

[1] = Table 13, peptides for affinity maturation, read-out: Ki (nM) mean ± SEM
[2] = Table 16, ncAAs incorporated peptides, read-out: Ki (nM) mean ± SEM
[3] = Table 4, truncation and elongation scans of APP epitope, read-out: Ki (nM) mean ± SEM
[4] = Table 11, deep mutational scanning validation variants of AJAP-1WT, read-out: Ki (nM) mean ± SEM
[5] = Table 1, affinity maturation, mean ± SEM, n ≥ 3, read-out: Ki

- Ki (Table 9, Ala-, D-amino acids and N-methylation scans of PIANPWT, read-out: Ki (nM) mean ± SEM): 318 ± 3 nM
Compound: CC[C@H](C)[C@H](NC(=O)[C@H](C)NC(=O)[C@H](Cc1c[nH]c2ccccc12)NC(=O)[C@@H]1CCCN1C(C)=O)C(=O)N[C@H](C(=O)N[C@@H](Cc1c[nH]c2ccccc12)C(=O)NCC(=O)N1CCC[C@H]1C(=O)N[C@H](C(=O)N[C@@H](C)C(=O)N[C@@H](CO)C(=O)N[C@@H](CCCNC(=N)N)C(=O)N[C@@H](CCC(=O)O)C(=O)N[C@@H](CC(=O)O)C(N)=O)[C@@H](C)O)C(C)C [PWAIVWGPTASRED] (Ac-PWAIVWGPTASRED-NH2)

- Ki [1]: 195 ± 7 nM
Compound: CC[C@H](C)[C@H](NC(=O)[C@H](Cc1ccccc1)NC(=O)[C@H](CCC(=O)O)NC(=O)[C@@H](NC(=O)[C@H](CCC(=O)O)NC(C)=O)[C@@H](C)O)C(=O)N[C@@H](C)C(=O)N[C@@H](Cc1c[nH]c2ccccc12)C(=O)N[C@@H](Cc1ccc(O)cc1)C(=O)NCC(=O)N1CCC[C@H]1C(=O)N[C@H](C(=O)NCC(=O)N[C@@H](CC(=O)O)C(=O)N[C@@H](CCC(=O)O)C(=O)N[C@@H](CC(=O)O)C(N)=O)[C@@H](C)O [ETEFIAWYGPTGDED] (Ac-ETEFIAWYGPTGDED-NH2)

- Ki [2]: 3860 ± 62 nM
Compound: CC(=O)N[C@@H](CCC(=O)O)C(=O)N[C@@H](CC(=O)O)C(=O)N[C@@H](CC(=O)O)C(=O)N[C@@H](CO)C(=O)N[C@@H](CC(=O)O)C(=O)N[C@H](C(=O)N[C@@H](Cc1c[nH]c2ccccc12)C(=O)N[C@@H](Cc1ccc(OCc2ccccc2)cc1)C(=O)NCC(=O)NCC(=O)N[C@@H](C)C(=O)N[C@@H](CC(=O)O)C(=O)N[C@H](C(=O)N[C@@H](CC(=O)O)C(N)=O)[C@@H](C)O)C(C)C [EDDSDVW(Obtyr)GGADTD] (Ac-EDDSDVWY(Bn)GGADTD-NH2)

- Ki [3]: 534 ± 13 nM
Compound: CC(=O)N[C@@H](CCC(=O)O)C(=O)N[C@@H](CCC(=O)O)C(=O)N[C@@H](CC(=O)O)C(=O)N[C@@H](CC(=O)O)C(=O)N[C@@H](CO)C(=O)N[C@@H](CC(=O)O)C(=O)N[C@H](C(=O)N[C@@H](Cc1c[nH]c2ccccc12)C(=O)N[C@@H](Cc1c[nH]c2ccccc12)C(=O)NCC(=O)NCC(=O)N[C@@H](C)C(=O)N[C@@H](CC(=O)O)C(N)=O)C(C)C (Ac-EEDDSDVWWGGAD-NH2)

- Ki (Table 8, Ala-, D-amino acids and N-methylation scans of AJAP-1WT, read-out: Ki (nM) mean ± SEM): 46 ± 2 nM
Compound: CC[C@H](C)[C@H](NC(=O)[C@H](Cc1ccccc1)NC(=O)[C@H](CCC(=O)O)NC(=O)[C@@H](NC(=O)[C@H](CCC(=O)O)NC(C)=O)[C@@H](C)O)C(=O)N[C@@H](C)C(=O)N(C)[C@@H](Cc1c[nH]c2ccccc12)C(=O)NCC(=O)N1CCC[C@H]1C(=O)N[C@H](C(=O)NCC(=O)N[C@@H](CC(=O)O)C(=O)N[C@@H](CCC(=O)O)C(=O)N[C@@H](CC(=O)O)C(N)=O)[C@@H](C)O [ETEFIA(N-Me-W)GPTGDED] (Ac-ETEFIA[NMeW]GPTGDED-NH2)

- Ki [2]: 814 ± 10 nM
Compound: CC(=O)N[C@@H](CCC(=O)O)C(=O)N[C@@H](CC(=O)O)C(=O)N[C@@H](CC(=O)O)C(=O)N[C@@H](CO)C(=O)N[C@@H](CC(=O)O)C(=O)N[C@H](C(=O)N[C@@H](Cc1c[nH]c2ccccc12)C(=O)N[C@@H](Cc1ccc2ccccc2c1)C(=O)NCC(=O)NCC(=O)N[C@@H](C)C(=O)N[C@@H](CC(=O)O)C(=O)N[C@H](C(=O)N[C@@H](CC(=O)O)C(N)=O)[C@@H](C)O)C(C)C [EDDSDVW(2Nala)GGADTD] (Ac-EDDSDVW[2Nal]GGADTD-NH2)

- Ki [4]: 46 ± 2 nM
Compound: CC[C@H](C)[C@H](NC(=O)[C@H](Cc1ccccc1)NC(=O)[C@H](CCC(=O)O)NC(=O)[C@@H](NC(=O)[C@H](CCC(=O)O)NC(C)=O)[C@@H](C)O)C(=O)N[C@@H](C)C(=O)N[C@@H](Cc1c[nH]c2ccccc12)C(=O)NCC(=O)N1CCC[C@H]1C(=O)N[C@H](C(=O)N[C@@H](Cc1ccccc1)C(=O)N[C@@H](CC(=O)O)C(=O)N[C@@H](CCC(=O)O)C(=O)N[C@@H](CC(=O)O)C(N)=O)[C@@H](C)O [ETEFIAWGPTFDED]

- Ki [5]: 6.5 ± 0.4 nM
- Ki [2]: 6.5 ± 0.4 nM
Compound: CCOc1ccc(C[C@H](NC(=O)[C@H](CC(=O)O)NC(=O)[C@H](CC(=O)O)NC(=O)[C@H](CC(=O)O)NC(=O)[C@H](CCC(=O)O)NC(C)=O)C(=O)N[C@H](C(=O)N[C@@H](CC(=O)O)C(=O)N[C@@H](Cc2c[nH]c3ccccc23)C(=O)NCC(=O)N2CCC[C@H]2C(=O)N[C@H](C(=O)N[C@@H](CO)C(=O)N[C@@H](CC(=O)O)C(=O)N[C@@H](CC(=O)O)C(=O)N[C@@H](CC(=O)O)C(N)=O)[C@@H](C)O)[C@@H](C)CC)cc1 [Peptide 34] (Ac-EDDDY(Et)IDWGPTSDDD-NH2)

- Ki [3]: 1754 ± 7 nM
Compound: CC(=O)N[C@@H](CCC(=O)O)C(=O)N[C@@H](CCC(=O)O)C(=O)N[C@@H](CC(=O)O)C(=O)N[C@@H](CC(=O)O)C(=O)N[C@@H](CO)C(=O)N[C@@H](CC(=O)O)C(=O)N[C@H](C(=O)N[C@@H](Cc1c[nH]c2ccccc12)C(=O)N[C@@H](Cc1c[nH]c2ccccc12)C(=O)NCC(=O)NCC(N)=O)C(C)C (Ac-EEDDSDVWWGG-NH2)

- Ki (Table 12, deep mutational scanning validation variants of PIANPWT, read-out: Ki (nM) mean ± SEM): 192 ± 4 nM
Compound: CC[C@H](C)[C@H](NC(=O)[C@H](Cc1ccccc1)NC(=O)[C@H](Cc1c[nH]c2ccccc12)NC(=O)[C@@H]1CCCN1C(C)=O)C(=O)N[C@H](C(=O)N[C@@H](Cc1c[nH]c2ccccc12)C(=O)NCC(=O)N1CCC[C@H]1C(=O)N[C@H](C(=O)N[C@H](C(=O)N[C@@H](CO)C(=O)N[C@@H](CC(=O)O)C(=O)N[C@@H](CCC(=O)O)C(=O)N[C@@H](CC(=O)O)C(N)=O)C(C)C)[C@@H](C)O)C(C)C [PWFIVWGPTVSDED] (Ac-PWFIVWGPTVSDED-NH2)

- Ki [4]: 38 ± 1 nM
Compound: CC[C@H](C)[C@H](NC(=O)[C@H](Cc1ccccc1)NC(=O)[C@H](CCC(=O)O)NC(=O)[C@@H](NC(=O)[C@H](CCC(=O)O)NC(C)=O)[C@@H](C)O)C(=O)N[C@@H](C)C(=O)N[C@@H](Cc1c[nH]c2ccccc12)C(=O)NCC(=O)N1CCC[C@H]1C(=O)N[C@@H](Cc1c[nH]cn1)C(=O)NCC(=O)N[C@@H](CC(=O)O)C(=O)N[C@@H](CCC(=O)O)C(=O)N[C@@H](CC(=O)O)C(N)=O [ETEFIAWGPHGDED] (Ac-ETEFIAWGPHGDED-NH2)

- Ki (CPP tagged peptides overview, SD1/2 binding affinity, mean ± SEM, n ≥ 3, read-out: Ki): 118 ± 3 nM
- Ki (Table 14, CPPs tagged peptides, read-out: Ki (nM) mean ± SEM): 118 ± 3 nM
Compound: CC[C@H](C)[C@H](NC(=O)[C@H](Cc1c[nH]c2ccccc12)NC(=O)[C@H](CC(=O)O)NC(=O)[C@H](CC(=O)O)NC(=O)[C@H](CC(=O)O)NC(=O)[C@H](CCC(=O)O)NC(C)=O)C(=O)N[C@@H](CC(=O)O)C(=O)N[C@@H](Cc1c[nH]c2ccccc12)C(=O)N[C@@H](Cc1ccc(O)cc1)C(=O)N[C@@H](CC(=O)O)C(=O)N[C@@H](CO)C(=O)N[C@@H](CC(=O)O)C(=O)N[C@@H](CC(=O)O)C(=O)N[C@@H](CC(=O)O)C(=O)NCC(=O)NCC(=O)NCC(=O)NCC(=O)N[C@@H](CO)C(=O)N[C@@H](CCCNC(=N)N)C(=O)N[C@@H](CCCNC(=N)N)C(=O)N[C@@H](CCCNC(=N)N)C(=O)N[C@@H](CCCNC(=N)N)C(=O)N[C@@H](CCCNC(=N)N)C(=O)N[C@@H](CCCNC(=N)N)C(=O)N[C@@H](CCCNC(=N)N)C(=O)N[C@@H](CCCNC(=N)N)C(N)=O [Peptide 16-FL-R8] (Ac-EDDDWIDWYDSDDDGGGGSRRRRRRRR-NH2)

- Ki (Table 6, elongation and truncation scan of PIANP binding epitope, read-out: Ki (nM) mean ± SEM): 561 ± 21 nM
Compound: CC[C@H](C)[C@H](NC(=O)[C@H](C)NC(=O)[C@H](Cc1c[nH]c2ccccc12)NC(=O)[C@@H]1CCCN1C(C)=O)C(=O)N[C@H](C(=O)N[C@@H](Cc1c[nH]c2ccccc12)C(=O)NCC(=O)N1CCC[C@H]1C(=O)N[C@H](C(=O)N[C@H](C(=O)N[C@@H](CO)C(=O)N[C@@H](CCCNC(=N)N)C(=O)N[C@@H](CCC(=O)O)C(=O)N[C@@H](CC(=O)O)C(=O)NCC(=O)NCC(N)=O)C(C)C)[C@@H](C)O)C(C)C (Ac-PWAIVWGPTVSREDGG-NH2)

- Ki [4]: 240 ± 7 nM
Compound: CC[C@H](C)[C@H](NC(=O)[C@H](Cc1ccccc1)NC(=O)[C@H](CCC(=O)O)NC(=O)[C@@H](NC(=O)[C@H](CCC(=O)O)NC(C)=O)[C@@H](C)O)C(=O)N[C@@H](C)C(=O)N[C@@H](Cc1c[nH]c2ccccc12)C(=O)N[C@@H](Cc1c[nH]cn1)C(=O)N1CCC[C@H]1C(=O)N[C@H](C(=O)NCC(=O)N[C@@H](CC(=O)O)C(=O)N[C@@H](CCC(=O)O)C(=O)N[C@@H](CC(=O)O)C(N)=O)[C@@H](C)O [ETEFIAWHPTGDED] (Ac-ETEFIAWHPTGDED-NH2)

- Ki [3]: 237 ± 8 nM
Compound: CC(=O)N[C@@H](C)C(=O)N[C@@H](CCC(=O)O)C(=O)N[C@@H](CCC(=O)O)C(=O)N[C@@H](CC(=O)O)C(=O)N[C@@H](CC(=O)O)C(=O)N[C@@H](CO)C(=O)N[C@@H](CC(=O)O)C(=O)N[C@H](C(=O)N[C@@H](Cc1c[nH]c2ccccc12)C(=O)N[C@@H](Cc1c[nH]c2ccccc12)C(=O)NCC(=O)NCC(=O)N[C@@H](C)C(=O)N[C@@H](CC(=O)O)C(=O)N[C@H](C(=O)N[C@@H](CC(=O)O)C(=O)N[C@@H](Cc1ccc(O)cc1)C(=O)N[C@@H](C)C(=O)N[C@@H](CC(=O)O)C(N)=O)[C@@H](C)O)C(C)C

- Ki [5]: 3.8 ± 0.2 nM
- Ki [1]: 3.8 ± 0.2 nM
Compound: CC[C@H](C)[C@H](NC(=O)[C@H](Cc1ccc(O)cc1)NC(=O)[C@H](CC(=O)O)NC(=O)[C@H](CC(=O)O)NC(=O)[C@H](CCC(=O)O)NC(C)=O)C(=O)N[C@@H](CC(=O)O)C(=O)N[C@@H](Cc1c[nH]c2ccccc12)C(=O)NCC(=O)N1CCC[C@H]1C(=O)N[C@H](C(=O)N[C@@H](CO)C(=O)N[C@@H](CC(=O)O)C(=O)N[C@@H](CC(=O)O)C(=O)N[C@@H](CC(=O)O)C(N)=O)[C@@H](C)O [Peptide 19] (Ac-EDDYIDWGPTSDDD-NH2)

Reference: patent US20260193293A1, “PEPTIDES CAPABLE OF INHIBITING PROTEIN-PROTEIN INTERACTIONS AT GABAB1A SUBUNIT AND USES THEREOF” (UNIVERSITY OF COPENHAGEN, priority 2022, published 2026)
